Assay results from US7659244B2, “Rapamycin peptides conjugates: synthesis and uses thereof” (Quest Pharmatech, Inc., priority 2004, dated 2010).
Structures can show the parent of a compound that is named as a salt. Where two headings read alike, the source gives them in different places.

Assays:
SKOV-3 [1] = experiment: cells; conditions: Homo sapiens, SK-OV-3, 96 h, read-out: Inhibition of H^3 Thymidine uptake (IC50 in nM)
Experimental: (§1) Quantification of cell proliferation and cell viability was determined by measuring the amount of radioactive [^3H-methyl]-thymidine incorporated into DNA.
(§2) Cell culture: For each cell line, culture was carried according to the ATCC Product Information Sheet provided. Cell lines were always freshly thawed prior to each experiment. For all experiments exponentially growing cells were harvested and centrifuged at 1100 rpm, the spent medium was aspirated and cell pellets were resuspended in fresh complete medium. Viable cells were enumerated by trypan blue exclusion using a hemacytometer.
(§3) Cells were then seeded in 96 well tissue culture plates in a total volume of 100 μL/well. A preliminary experiment should be performed to determine the most appropriate cell density for each individual cell line. Cells were allowed to attach and acclimate overnight.
(§4) Addition of test compounds: Each test compound was dissolved in DMSO at a final concentration of 2 mM. Each stock compound was then diluted in complete medium (1:100) to obtain a 20 μM working solution. The working solution was used for further serial dilutions to obtain concentrations of 200 nM, 20 nM, 2 nM, 0.2 nM and 0.02 nM. 100 μL of each dilution was added to the 100 μL cell cultures (3 replicates),. to give final test concentrations of 100 nM, 10 nM, 1 nM, 0.1 nM and 0.01 nM. Using this system of dilutions, the maximum concentration of DMSO to which the cells were exposed was 0.01% v/v. Therefore, 0.01% DMSO was added to control cells to which no test compounds was added. On each plate two positive controls were included: Adriamycin Hydrochloride and Rapamycin. For each positive control 3 concentrations were chosen in a range that achieved an LC50, this range is cell line specific and must be predetermined in a pilot experiment. Plates were incubated for 96 hours prior to harvesting. [^3H-methyl]-thymidine incorporation: After 80 hours incubation, 10 μL (0.5 μCi) of [^3H-methyl]-thymidine diluted in 1× HBSS was added and plates were incubated overnight.
(§5) Growth medium was removed from each well and 100 uL of Trypsin-EDTA was added. The plate was incubated at 37° C. until cells were trypsinized (check under microscope). The detached cells were harvested using a semiautomatic cell harvester. Filters were dried prior to addition to scintillation vials. two mL of scintillation fluid was automatically dispensed into each vial and counting was effected on program 1 (^3H, 1 min, DPM).
(§6) The average and standard error from the DPM counts of replicate samples were calculated.

Lncap [2] = experiment: cells; conditions: Homo sapiens, 96 h, read-out: Inhibition of H^3 Thymidine uptake (IC50 in nM)
Experimental: as §1, §2, §3, §4, §5, §6

D341 [3] = experiment: cells; conditions: Homo sapiens, D341, 96 h, read-out: Inhibition of H^3 Thymidine uptake (IC50 in nM)
Experimental: as §1, §2, §3, §4, §5, §6

SK-N-SH [4] = experiment: cells; conditions: Homo sapiens, 96 h, read-out: Inhibition of H^3 Thymidine uptake (IC50 in nM)
Experimental: as §1, §2, §3, §4, §5, §6

OVCAR-3 [5] = experiment: cells; conditions: Homo sapiens, OVCAR-3, 96 h, read-out: Inhibition of H^3 Thymidine uptake (IC50 in nM)
Experimental: as §1, §2, §3, §4, §5, §6

MCF-7 [6] = experiment: cells; conditions: Homo sapiens, MCF7, 96 h, read-out: Inhibition of H^3 Thymidine uptake (IC50 in nM)
Experimental: as §1, §2, §3, §4, §5, §6

LS174T [7] = experiment: cells; conditions: Homo sapiens, 96 h, read-out: Inhibition of H^3 Thymidine uptake (IC50 in nM)
Experimental: as §1, §2, §3, §4, §5, §6

SKMEL-2 [8] = experiment: cells; conditions: Homo sapiens, SK-MEL-2, 96 h, read-out: Inhibition of H^3 Thymidine uptake (IC50 in nM)
Experimental: as §1, §2, §3, §4, §5, §6

A431 [9] = experiment: cells; conditions: Homo sapiens, A-431, 96 h, read-out: Inhibition of H^3 Thymidine uptake (IC50 in nM)
Experimental: as §1, §2, §3, §4, §5, §6

various cell lines = conditions: in vitro; cited from earlier work
LS174T [10] = conditions: read-out: Inhibition of H^3 Thymidine uptake (IC50 in nM); LS174T cells, 96 hours incubation
Experimental: as §1, §2, §3, §4, §5, §6

Lncap [11] = conditions: read-out: Inhibition of H^3 Thymidine uptake (IC50 in nM); Lncap cells, 96 hours incubation
Experimental: as §1, §2, §3, §4, §5, §6

A431 [12] = conditions: read-out: Inhibition of H^3 Thymidine uptake (IC50 in nM); A431 cells, 96 hours incubation
Experimental: as §1, §2, §3, §4, §5, §6

SK-N-SH [13] = conditions: read-out: Inhibition of H^3 Thymidine uptake (IC50 in nM); SK-N-SH cells, 96 hours incubation
Experimental: as §1, §2, §3, §4, §5, §6

MCF-7 [14] = conditions: read-out: Inhibition of H^3 Thymidine uptake (IC50 in nM); MCF-7 cells, 96 hours incubation
Experimental: as §1, §2, §3, §4, §5, §6

SKMEL-2 [15] = conditions: read-out: Inhibition of H^3 Thymidine uptake (IC50 in nM); SKMEL-2 cells, 96 hours incubation
Experimental: as §1, §2, §3, §4, §5, §6

D341 [16] = conditions: read-out: Inhibition of H^3 Thymidine uptake (IC50 in nM); D341 cells, 96 hours incubation
Experimental: as §1, §2, §3, §4, §5, §6

SKOV-3 [17] = conditions: read-out: Inhibition of H^3 Thymidine uptake (IC50 in nM); SKOV-3 cells, 96 hours incubation
Experimental: as §1, §2, §3, §4, §5, §6

OVCAR-3 [18] = conditions: read-out: Inhibition of H^3 Thymidine uptake (IC50 in nM); OVCAR-3 cells, 96 hours incubation
Experimental: as §1, §2, §3, §4, §5, §6

Compound | IC50 (SKOV-3 [1]) | IC50 (Lncap [2]) | IC50 (D341 [3]) | IC50 (SK-N-SH [4]) | IC50 (OVCAR-3 [5]) | IC50 (MCF-7 [6]) | IC50 (LS174T [7]) | IC50 (SKMEL-2 [8]) | IC50 (A431 [9]) | IC50 (various cell lines) | IC50 (LS174T [10]) | IC50 (Lncap [11]) | IC50 (A431 [12]) | IC50 (SK-N-SH [13]) | IC50 (MCF-7 [14]) | IC50 (SKMEL-2 [15]) | IC50 (D341 [16]) | IC50 (SKOV-3 [17]) | IC50 (OVCAR-3 [18])
COc1cccc2c1C(=O)c1c(O)c3c(c(O)c1C2=O)C[C@@](O)(C(=O)CO)C[C@@H]3O[C@H]1C[C@H](N)[C@H](O)[C@H](C)O1 [Adriamycin, Adriamycin Hydrochloride] | 130 nM | 2.54 nM | 7.02 nM | 0.896 nM | 4.77 nM | 3.11 nM | 4.04 nM | 1.93 nM | 50.4 nM |  |  |  |  |  |  |  |  |  | 
CO[C@H]1C[C@@H]2CC[C@@H](C)[C@@](O)(O2)C(=O)C(=O)N2CCCC[C@H]2C(=O)O[C@H]([C@H](C)C[C@@H]2CC[C@@H](OC(=O)C(C)(CO)CO)[C@H](OC)C2)CC(=O)[C@H](C)/C=C(\C)[C@@H](O)[C@@H](OC)C(=O)[C@H](C)C[C@H](C)/C=C/C=C/C=C/1C [CCI-779] |  |  |  |  |  |  |  |  |  | < 10 nM |  |  |  |  |  |  |  |  | 
CO[C@H]1C[C@@H]2CC[C@@H](C)[C@@](O)(O2)C(=O)C(=O)N2CCCC[C@H]2C(=O)O[C@H]([C@H](C)C[C@@H]2CC[C@@H](O)[C@H](OC)C2)CC(=O)[C@H](C)/C=C(\C)[C@@H](O)[C@@H](OC)C(=O)[C@H](C)C[C@H](C)/C=C/C=C/C=C/1C [Compound 5, Rapamycin] | 0.392 nM | 30.3 nM | 1.56 nM | 1.33 nM | 44.5 nM | 0.408 nM | 980 nM | 1.12 nM | 341 nM |  |  |  |  |  |  |  |  |  | 
Rapamycin-42-O-ester-(R) (+)-2-amino-3-phenyl-1-propanol [Compound 7k] |  |  |  |  |  |  |  |  |  |  | 1380 nM | 146 nM | 550 nM | 71.3 nM | 15.9 nM | 109 nM | 259 nM | 66 nM | 296 nM
